Test results: PMC13114161 (Antibiotics, 2026)
Like-named read-outs stand apart in the source and are kept apart here.

Experiments:
[1] = system: multidrug-resistant P. aeruginosa clinical isolates from the CDC-FDA; experiment: Levofloxacin MIC potentiation, CDC-FDA isolates; format: cell-based, Pseudomonas aeruginosa; conditions: for MIC: Pseudomonas aeruginosa; for Levofloxacin MIC fold difference, +EPI / Levofloxacin MIC, +EPI: EPI […] (TXA11114, TXA09155) or 50 μg/mL (MC-04,124, PAβN)
Procedure: In a comparative study, the levofloxacin-potentiating activity of TXA11114 was evaluated alongside the well-characterized EPIs PAβN and MC-04,124 using P. aeruginosa clinical isolates obtained from the CDC and FDA Antimicrobial Resistance Isolate Bank and the Walter Reed Army Institute of Research (WRAIR). […] While PAβN has been widely studied in laboratory strains, its activity against the CDC/FDA P. aeruginosa panel has been reported only sparingly, limiting direct cross-study comparisons.
(§1) MIC assays for potentiation of antimicrobial activity against P. aeruginosa were performed as described previously.

[2] = system: P. aeruginosa CDC AR-0232, AR-0248, AR-0249; format: cell-based, Pseudomonas aeruginosa
Procedure: Frequency-of-resistance studies were carried out as described previously.

P. aeruginosa ATCC 27853 [3] = experiment: MIC and levofloxacin potentiation (broth microdilution); format: cell-based, Pseudomonas aeruginosa; conditions: for MIC: Pseudomonas aeruginosa, ATCC27853
Procedure: Once synthesized, the three fluorinated EPI analogs (TXA11114, TXA11164 and TXA12027) were first assayed for their antibacterial activities against P. aeruginosa ATCC 27853. They had MICs of 100, >200 and 100 µg/mL, respectively (Table 1). […] Particularly, the inactivity of TXA11164 was surprising as the pKa values of both the amines are similar to that in TXA11114.
as §1

[4] = system: P. aeruginosa DA7232 (gyrA-T83I, parC-S80L); experiment: Levofloxacin MIC potentiation; format: cell-based, Pseudomonas aeruginosa; conditions: Pseudomonas aeruginosa, read-out: Levofloxacin MIC
Procedure: as §1

P. aeruginosa ATCC 27853 [5] = experiment: Neutropenic murine thigh infection model; format: in vivo, CD-1 mice; conditions: for Mean Log10 CFU (thigh): +24 hr
Procedure: Female CD-1 mice (6–8 weeks old; 22 ± 2 g) were obtained from Envigo Laboratories, quarantined for at least 3 days, and housed 5 per cage in accordance with the approved IACUC protocol (IACUC-2017-0049). Neutropenia was induced by intraperitoneal (IP) administration of cyclophosphamide (Cytoxan) at 150 mg/kg on day 4 and 100 mg/kg on day 1 prior to infection.
Mice were infected intramuscularly (IM) in the right thigh with 0.1 mL of bacterial suspension containing approximately 1 × 10^5–10^6 CFU/mL. […] At 2 h or 24 h post-infection, mice were euthanized by CO2 asphyxiation, and thighs were aseptically excised and placed in 2 mL sterile phosphate-buffered saline (PBS) on ice. Tissue homogenization was performed using a Polytron PT10-35 (12 mm aggregate, Kinematica, Malters, Switzerland).
Plates were incubated overnight at 37 °C, and colonies were enumerated the following day.

CYP1A2 = molecular target: T1, CYP1A2 (Homo sapiens, UniProt P05177); experiment: Cytochrome P450 inhibition; format: in vitro ADME; conditions: probe phenacetin; human liver microsomes; read-out: CYP Inhibition IC50, 1A2
T1 construct: from tissue; host or cells: human liver microsomes
T1 sequence (P05177 whole entry): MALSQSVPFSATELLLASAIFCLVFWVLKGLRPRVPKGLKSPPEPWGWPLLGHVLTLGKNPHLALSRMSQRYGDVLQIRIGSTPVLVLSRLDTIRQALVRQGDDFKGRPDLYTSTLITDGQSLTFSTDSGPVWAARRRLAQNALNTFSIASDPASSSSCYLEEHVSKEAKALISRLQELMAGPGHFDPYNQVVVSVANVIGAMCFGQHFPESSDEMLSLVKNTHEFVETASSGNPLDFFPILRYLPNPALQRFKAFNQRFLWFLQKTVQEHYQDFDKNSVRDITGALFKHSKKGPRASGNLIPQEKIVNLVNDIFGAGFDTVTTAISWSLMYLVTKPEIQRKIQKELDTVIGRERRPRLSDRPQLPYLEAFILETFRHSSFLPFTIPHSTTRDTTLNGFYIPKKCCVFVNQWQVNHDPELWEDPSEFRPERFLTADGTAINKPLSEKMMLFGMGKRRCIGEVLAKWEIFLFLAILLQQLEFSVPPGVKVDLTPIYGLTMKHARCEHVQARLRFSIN
Procedure: (§2) Inhibition of CYP1A2, CYP2D6, CYP2C9, CYP2C19, and CYP3A4 by TXA11114 was assessed in human liver microsomes by measuring the inhibition of probe substrate metabolism. Phenacetin, bufuralol, diclofenac, S-mephenytoin, and midazolam were used as probe substrates for CYP1A2, CYP2D6, CYP2C9, CYP2C19, and CYP3A4, respectively. Corresponding metabolites (acetaminophen, OH-bufuralol, 4-OH diclofenac, 4-OH mephenytoin, and 1-OH midazolam) were quantified by LC-MS/MS. Selective inhibitors (fluvoxamine (CYP1A2), quinidine (CYP2D6), sulfaphenazole (CYP2C9), ticlopidine (CYP2C19), and ketoconazole (CYP3A4)) were used as positive controls. Test and control compounds, prepared in DMSO at various concentrations, were spiked into 2× microsomal reaction mixtures, and 50 µL aliquots were transferred to individual wells. Probe substrates (25 µL, 4× concentration) were added to the respective wells and pre-incubated for 5 min at 37 °C. Reactions were initiated by the addition of 25 µL NADPH (4×) and incubated for 5 min (CYP3A4), 10 min (CYP1A2, CYP2D6, CYP2C9), or 20 min (CYP2C19). Reactions were quenched with 100 µL ice-cold acetonitrile containing glipizide as an internal standard. Plates were centrifuged at 4000 rpm for 15 min, and 100 µL supernatants were analyzed by LC-MS/MS in MRM mode. […] Percent inhibition was calculated as 100 − percent activity. IC50 values were determined using GraphPad Prism (version 5.02).

CYP2C9 = molecular target: T2, CYP2C9 (Homo sapiens, UniProt P11712); experiment: Cytochrome P450 inhibition; format: in vitro ADME; conditions: probe diclofenac; human liver microsomes; read-out: CYP Inhibition IC50, 2C9
T2 construct: from tissue; host or cells: human liver microsomes
T2 sequence (P11712 whole entry): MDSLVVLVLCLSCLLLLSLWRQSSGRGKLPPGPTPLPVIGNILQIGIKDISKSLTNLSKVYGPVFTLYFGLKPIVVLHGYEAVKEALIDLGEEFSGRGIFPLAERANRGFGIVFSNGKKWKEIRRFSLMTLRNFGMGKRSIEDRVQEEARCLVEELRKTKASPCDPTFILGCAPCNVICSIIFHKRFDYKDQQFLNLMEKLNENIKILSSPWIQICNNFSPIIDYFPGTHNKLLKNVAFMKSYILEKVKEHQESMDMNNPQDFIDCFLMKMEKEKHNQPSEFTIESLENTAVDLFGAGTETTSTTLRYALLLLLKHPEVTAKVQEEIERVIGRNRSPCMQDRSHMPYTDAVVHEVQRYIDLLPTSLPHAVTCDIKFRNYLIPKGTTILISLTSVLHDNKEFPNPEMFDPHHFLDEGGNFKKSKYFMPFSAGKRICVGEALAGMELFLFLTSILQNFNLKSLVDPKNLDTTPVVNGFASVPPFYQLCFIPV
Procedure: as §2

CYP2C19 = molecular target: T3, CYP2C19 (Homo sapiens, UniProt P33261); experiment: Cytochrome P450 inhibition; format: in vitro ADME; conditions: probe S-mephenytoin; human liver microsomes; read-out: CYP Inhibition IC50, 2C19
T3 construct: from tissue; host or cells: human liver microsomes
T3 sequence (P33261 whole entry): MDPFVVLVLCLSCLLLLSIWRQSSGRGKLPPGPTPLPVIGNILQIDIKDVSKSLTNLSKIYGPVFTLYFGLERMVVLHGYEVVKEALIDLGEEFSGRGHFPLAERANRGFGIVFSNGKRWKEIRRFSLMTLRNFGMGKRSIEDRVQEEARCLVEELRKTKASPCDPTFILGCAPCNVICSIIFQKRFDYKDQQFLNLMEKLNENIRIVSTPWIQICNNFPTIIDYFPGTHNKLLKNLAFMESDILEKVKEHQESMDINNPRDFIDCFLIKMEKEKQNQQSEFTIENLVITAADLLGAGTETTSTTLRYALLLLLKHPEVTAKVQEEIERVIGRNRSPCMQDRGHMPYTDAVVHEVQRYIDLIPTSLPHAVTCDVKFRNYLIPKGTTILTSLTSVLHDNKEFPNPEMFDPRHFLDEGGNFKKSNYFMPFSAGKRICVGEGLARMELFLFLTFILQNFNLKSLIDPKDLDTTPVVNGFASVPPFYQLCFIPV
Procedure: as §2

[6] = levofloxacin 10 mg/kg SC QID, alone or with TXA11114 30 mg/kg IV QID

C[C@H]1COc2c(N3CCN(C)CC3)c(F)cc3c(=O)c(C(=O)O)cn1c23 [Levofloxacin, levofloxacin]
MIC ([1]; read-out: Levofloxacin MIC, No EPI, AR-0229): 64 µg/mL | MIC ([1]; read-out: Levofloxacin MIC, No EPI, AR-0232): 8 µg/mL | MIC ([1]; read-out: Levofloxacin MIC, No EPI, AR-0233): 4 µg/mL | MIC ([1]; read-out: Levofloxacin MIC, No EPI, AR-0234): 8 µg/mL | MIC ([1]; read-out: Levofloxacin MIC, No EPI, AR-0239): 32 µg/mL | MIC ([1]; read-out: Levofloxacin MIC, No EPI, AR-0242): 8 µg/mL | MIC ([1]; read-out: Levofloxacin MIC, No EPI, AR-0244): 64 µg/mL | MIC ([1]; read-out: Levofloxacin MIC, No EPI, AR-0246): 64 µg/mL | MIC ([1]; read-out: Levofloxacin MIC, No EPI, AR-0248): 16 µg/mL | MIC ([1]; read-out: Levofloxacin MIC, No EPI, AR-0249): 64 µg/mL | MIC ([1]; read-out: Levofloxacin MIC, No EPI, AR-0252): 32 µg/mL | MIC ([1]; read-out: Levofloxacin MIC, No EPI, AR-0253): 2 µg/mL | MIC ([1]; read-out: Levofloxacin MIC, No EPI, AR-0264): 64 µg/mL | Frequency of Resistance ([2]; CDC AR-0232, levofloxacin 4× MIC (32 μg/mL) alone): 1.68 × 10^−8 | Frequency of Resistance ([2]; CDC AR-0248, levofloxacin 4× MIC (64 μg/mL) alone): 8.64 × 10^−8 | Frequency of Resistance ([2]; CDC AR-0249, levofloxacin 4× MIC (256 μg/mL) alone): 2.15 × 10^−8 | MIC (P. aeruginosa ATCC 27853 [3]; ATCC 27853 parent strain (Table S1), read-out: MIC): 1 µg/mL | MIC [4]: 256 µg/mL | Mean Log10 CFU (thigh) (P. aeruginosa ATCC 27853 [5]; [6]): 7.41 log10 CFU | Mean Log10 CFU (thigh) (P. aeruginosa ATCC 27853 [5]; levofloxacin 15 mg/kg SC QID, alone or with TXA11114 30 mg/kg IV QID): 5.97 log10 CFU | Mean Log10 CFU (thigh) (P. aeruginosa ATCC 27853 [5]; levofloxacin 20 mg/kg SC QID, alone or with TXA11114 30 mg/kg IV QID): 4.47 log10 CFU | Mean Log10 CFU Change vs +2 hr Control, Δlog10 (treatment-baseline), thigh (P. aeruginosa ATCC 27853 [5]; [6]): 1.33 log10 CFU

NC[C@@H]1CN[C@H](CNC(=O)c2cc3ccc(-c4ccc(F)cc4)cc3[nH]2)C1 [TXA09155]
IC50 at 10 min (CYP1A2): > 100 µM | IC50 at 10 min (CYP2C9): > 100 µM | IC50 at 20 min (CYP2C19): > 100 µM | Levofloxacin MIC fold difference, +EPI ([1]; AR-0229): 32 fold | Levofloxacin MIC, +EPI ([1]; AR-0229): 2 µg/mL | Levofloxacin MIC fold difference, +EPI ([1]; AR-0232): 16 fold | Levofloxacin MIC, +EPI ([1]; AR-0232): 0.5 µg/mL | Levofloxacin MIC fold difference, +EPI ([1]; AR-0233): 32 fold | Levofloxacin MIC, +EPI ([1]; AR-0233): 0.125 µg/mL | Levofloxacin MIC fold difference, +EPI ([1]; AR-0234): 16 fold | Levofloxacin MIC, +EPI ([1]; AR-0234): 0.5 µg/mL | Levofloxacin MIC fold difference, +EPI ([1]; AR-0239): 16 fold | Levofloxacin MIC, +EPI ([1]; AR-0239): 4 µg/mL | Levofloxacin MIC, +EPI ([1]; AR-0242): 1 µg/mL | Levofloxacin MIC, +EPI ([1]; AR-0244): 2 µg/mL | Levofloxacin MIC fold difference, +EPI ([1]; AR-0246): 8, (8) fold | Levofloxacin MIC, +EPI ([1]; AR-0246): 8, (8) μg/mL | Levofloxacin MIC fold difference, +EPI ([1]; AR-0248): 32 fold | Levofloxacin MIC, +EPI ([1]; AR-0248): 0.5 µg/mL | Levofloxacin MIC fold difference, +EPI ([1]; AR-0249): 32 fold | Levofloxacin MIC, +EPI ([1]; AR-0249): 2 µg/mL | Levofloxacin MIC fold difference, +EPI ([1]; AR-0252): 64 fold | Levofloxacin MIC, +EPI ([1]; AR-0252): 0.5 µg/mL | Levofloxacin MIC fold difference, +EPI ([1]; AR-0253): 64 fold | Levofloxacin MIC, +EPI ([1]; AR-0253): 0.031 µg/mL | Levofloxacin MIC, +EPI ([1]; AR-0264): 1 µg/mL | Fold MIC reduction [LVX/EPI-LVX] (P. aeruginosa ATCC 27853 [3]; EPI at […], ATCC 27853): 16 fold | MIC (P. aeruginosa ATCC 27853 [3]; EPI alone, ATCC 27853, read-out: EPI MIC): 50 µg/mL | LVX MIC (+EPI) (P. aeruginosa ATCC 27853 [3]; levofloxacin MIC with EPI at […], ATCC 27853): 0.063 µg/mL | Improvement of levofloxacin efficacy in murine thigh or lung infection models (P. aeruginosa ATCC 27853 [5]; thigh or lung infection models): neither TXA01182 nor TXA09155 improved levofloxacin efficacy
